Measurements as given in article PMC4471147, “The Effect of Mutations on Drug Sensitivity and Kinase Activity of Fibroblast Growth Factor Receptors: A Combined Experimental and Theoretical Study” (eBioMedicine, 2015).
“And” between values parts separate entries of the source, which are not always exact repeats. Equal values may be shown once.

Experiments:
[1] = test system: control (vector only) NIH 3T3 cells; experiment: Cell viability assay, control NIH 3T3 cells; assay type: cell-based; conditions: for effect on cell viability: concentration range up to 1 μM, 72 h
Experimental: See also Supplemental Table S2. […] See also Supplemental Table S1. C. […] Cell viability was assessed at 72 h. […]
from 3 independent assays. […]
the CellTiter-Blue Cell Viability Assay (Promega). Cells were plated in triplicate in a 96- […]
medium with inhibitor at the indicated concentration. After 3 days with the inhibitor, 20 µl […]
(Berthold technologies). Background signal was removed by subtracting the fluorescence from cell-free wells. Results are from 3 independent assays.

LYN = test system: LYN; design: method as in Dieci et al., 2013; conditions: ref Dieci et al., 2013; cited from earlier work
SYK = test system: SYK; design: method as in Dieci et al., 2013; conditions: ref Dieci et al., 2013; cited from earlier work
FGFR = conditions: ref Dieci et al., 2013; cited from earlier work
PDGFα = test system: PDGFα; design: method as in Dieci et al., 2013; conditions: ref Dieci et al., 2013; cited from earlier work
[2] = molecular target: vascular endothelial growth factor receptor (VEGFR); conditions: cited from earlier work
[3] = molecular target: T1, FGFR1 V561M kinase domain (Homo sapiens, UniProt P11362, V561M); experiment: ADP-Glo kinase assay, FGFR1 V561M gatekeeper variant; assay type: biochemical; design: All kinase domain constructs were cloned into pOPINS (OPPF, Oxford, UK) or pJ821; purification tag (captured on HisTrap, removed with Ulp1 protease) (cleaved yes); made in house; host or cells: E. coli C41 (DE3) co-expressing lambda phosphatase and human CDC37 (phospho form: without the accessory plasmid); conditions: for change of inhibitor sensitivity by V561M: V561M compared to wild type, in vitro kinase assay
Experimental: The ADP-Glo (Promega) methodology was used for all kinase assays following manufacturers instructions. […] In various experiments the concentrations of these components were varied and this is stated in the text or figure legends. In order to calculate valid inhibition constants (Ki), a number of kinetic parameters needed to be ascertained, in particular, the Km of the kinases for ATP. A thorough Michaelis–Menten kinetic analysis was performed ensuring that all relevant parameters were in the linear range and that the appropriate concentrations of ATP, substrate and kinase were adhered to. All data were processed using Graphpad Prism and parameters presented in Supplemental Tables.
Fig. 1 Kinase activity and inhibition of FGFR1 variants. A. Amino acid alignment of part of the hinge region of the FGFR family and a number of other tyrosine kinases with reported gatekeeper mutations. The gatekeeper residue in each case is numbered and bordered in dark grey. The FGFR 1 to 3 tyrosine that is a cysteine in FGFR4 is highlighted in light grey. B. Histogram showing the inhibition constants (Ki) for four selected compounds upon FGFR1 kinase domain protein, wild type and the indicated mutants. The data were generated from enzyme kinetic analyses using various concentrations of inhibitors and fitting using the Morrison equation within Graphpad Prism. Each data point was repeated in duplicate and the standard error of the mean is presented on each bar. C. Left panel: comparison of the activity of FGFR1 apo (WT-apo) and phosphorylated (WT-2P) kinase domain protein produced using the ADP-Glo Assay. Each data point was produced in triplicate and the standard errors are indicated. Right panel: comparison of the enzyme efficiency (kcat/Km) of FGFR1 apo and phosphorylated protein. Parameters were generated through Michaelis–Menten kinetic experiments and analysed using Graphpad Prism software. […] The data in B–D are representative for 3–4 independent experiments. See also Supplemental Tables S1 and S2.

[4] = test system: mutations of the gatekeeper residue in all FGFR receptors; design: method as in Tan et al., 2014; conditions: ref Tan et al., 2014; cited from earlier work
[5] = test system: NIH 3T3 cells expressing FGFR3-TACC3 fusion protein; experiment: Cell viability assay, FGFR3-TACC3 NIH 3T3 cells; assay type: cell-based; conditions: increasing concentrations, 72 h
Source text: (§1) Data were fit with a one-phase association model (for presentation purposes only) using Graphpad prism. Each data point was produced in triplicate and the standard errors are indicated. […] Parameters were generated through Michaelis–Menten kinetic experiments and analysed using Graphpad Prism software. See also Supplemental Table S2. […] The data were generated from enzyme kinetic analyses using various concentrations of inhibitors and fitting using the Morrison equation within Graphpad Prism. Each data point was repeated in duplicate and the standard error of the mean is presented on each bar. See also Supplemental Table S1. C. […] Bottom panels show morphology of NIH3T3 cells expressing the indicated constructs. […] Cell viability was assessed at 72 h. […]
(§2) Cells were seeded in triplicate at 1x10^5 cells per well in 6-well plates, fed every 2-3 days and trypsinised and counted after 7 days, using a coulter counter (Beckman). […]
(§3) The amount of viable cells following culture with kinase inhibitors was measured using the CellTiter-Blue Cell Viability Assay (Promega). […] After 3 days with the inhibitor, 20 µl of cell titer blue reagent was added for 2 hours, and fluorescence measured with excitation at 540 nm and emission at 590 nm, using a Mithras LB940 plate reader (Berthold technologies). Background signal was removed by subtracting the fluorescence from cell-free wells. […]

[6] = test system: NIH 3T3 cells expressing FGFR3 WT; experiment: Cell viability assay, FGFR3 WT NIH 3T3 cells; assay type: cell-based; conditions: increasing concentrations of inhibitor
Experimental: Cells were seeded in triplicate at 1x10^5 cells per well in 6-well plates, fed every 2-3 days and trypsinised and counted after 7 days, using a coulter counter (Beckman). Results are from 3 independent assays.
The amount of viable cells following culture with kinase inhibitors was measured using the CellTiter-Blue Cell Viability Assay (Promega). Cells were plated in triplicate in a 96-well plate at 2x10^3 cells/well and left to attach overnight before the addition of fresh medium with inhibitor at the indicated concentration. After 3 days with the inhibitor, 20 µl of cell titer blue reagent was added for 2 hours, and fluorescence measured with excitation at 540 nm and emission at 590 nm, using a Mithras LB940 plate reader (Berthold technologies). Background signal was removed by subtracting the fluorescence from cell-free wells. Results are from 3 independent assays.

FGFR1 WT kinase domain = FGFR1 WT kinase domain (Homo sapiens, UniProt P11362); experiment: Isothermal titration calorimetry, FGFR1 WT; conditions: ITC, 20 °C
FGFR3 WT kinase domain = FGFR3 WT kinase domain (Homo sapiens, UniProt P22607); experiment: Isothermal titration calorimetry, FGFR3 WT; conditions: ITC, 20 °C
[7] = molecular target: T1, FGFR1 V561M kinase domain; experiment: Isothermal titration calorimetry, FGFR1 V561M
[8] = molecular target: FGFR1 Y563C kinase domain (Homo sapiens, UniProt P11362, Y563C); experiment: Isothermal titration calorimetry, FGFR1 Y563C
KIT = conditions: ref Dieci et al., 2013; cited from earlier work
[9] = test system: NIH 3T3 cell line expressing FGFR3-TACC3 V555M; conditions: increasing concentrations, 72 h
Source text: as §1, §2, §3

[10] = test system: KMS-11 cells harbouring FGFR3 Y373C, V555M; design: method as in Chell et al., 2013; conditions: 1 μM; ref Chell et al., 2013; cited from earlier work

## Cc1ccc(C(=O)Nc2ccc(CN3CCN(C)CC3)c(C(F)(F)F)c2)cc1C#Cc1cnc2cccnn12 [AP24534]
[1]; Mus musculus, NIH3T3, read-out: inhibitory effects under control condition
  inhibition at 1 µM: > 60%
LYN
  IC50: […]
SYK
  IC50: […]
FGFR
  IC50: 1 to 2.5 nM
PDGFα
  IC50: 1 to 2.5 nM
[2]
  IC50: 1 to 2.5 nM
[3]
  change of inhibitor sensitivity by V561M: marginal effect on sensitivity

## C=CC(=O)Nc1ccc(CN2C(=O)N(c3cc(OC)cc(OC)c3)Cc3cnc(Nc4ccc(N5CCN(C)CC5)cc4)nc32)cc1 [FIIN2]
[4]
  efficacy towards gatekeeper mutations: proved effective

## CCN(CC)CCCCNc1ncc2cc(-c3cc(OC)cc(OC)c3)c(NC(=O)NC(C)(C)C)nc2n1 [PD173074]
[1]
  effect on cell viability: very little or no effect
[5]
  effect on cell viability: selectively inhibited
[6]
  effect on cell viability: unaffected
FGFR1 WT kinase domain
  -TΔS: -3.7 ± 0.1 kcal/mol
  n (number of binding sites): 0.91 ± 0.0007
  ΔG: -11.4 ± 0.09 kcal/mol
  ΔH: -7.7 ± 0.01 kcal/mol
FGFR3 WT kinase domain
  -TΔS: -0.1 ± 0.32 kcal/mol
  n (number of binding sites): 0.89 ± 0.002
  ΔG: -11.5 ± 0.25 kcal/mol
  ΔH: -11.4 ± 0.07 kcal/mol
[7]; ITC, 20 °C
  -TΔS: -5.3 ± 0.14 kcal/mol
  n (number of binding sites): 0.80 ± 0.006
  ΔG: -8.7 ± 0.10 kcal/mol
  ΔH: -3.4 ± 0.04 kcal/mol
[7]; V561M versus WT, from ITC, standard deviation in parentheses
  ΔΔGexp (binding free energy difference, mutant − WT): 2.73 ± 0.18 kcal/mol and 2.73 (0.18) kcal/mol
[8]; ITC, 20 °C
  -TΔS: -4.1 ± 0.14 kcal/mol
  n (number of binding sites): 0.66 ± 0.002
  ΔG: -10.5 ± 0.11 kcal/mol
  ΔH: -6.4 ± 0.03 kcal/mol
[8]; Y563C versus WT, from ITC, uncertainty in parentheses
  ΔΔGexp (binding free energy difference, mutant − WT): 0.97 kcal/mol
[3]
  change of inhibitor sensitivity by V561M: clear reduction of sensitivity
[3]; V561M versus WT FGFR1
  reduction of potency on the gatekeeper variant: up to 225 fold

## CN1CCN(c2ccc3nc(-c4c(N)c5c(F)cccc5[nH]c4=O)[nH]c3c2)CC1 [TKI258]
[1]
  effect on cell viability: very little or no effect
KIT
  IC50: […]

## C=CC(=O)Nc1ccc(CN(C(=O)Nc2c(Cl)c(OC)cc(OC)c2Cl)c2cc(Nc3ccc(N4CCN(C)CC4)cc3)ncn2)cc1 [FIIN3]
[4]
  efficacy towards gatekeeper mutations: proved effective

## AZD4547
[1]
  effect on cell viability: very little or no effect
[5]
  effect on cell viability: most effective
[9]
  effect on cell viability: completely ineffective
[10]
  effect on cells: only marginally affected
[3]
  change of inhibitor sensitivity by V561M: clear reduction of sensitivity
